Laboratory results: patent US20250270238A1, “A NEW BIFUNCTIONAL LINCHPIN THAT REACTS SELECTIVELY WITH CYSTEINE RESIDUES TO INVOKE CYCLIZATION WHILE CONCURRENTLY INTRODUCING A DOTAGA MOIETY FOR RADIOMETAL CHELATION” (The Governors of the University of Alberta, priority 2022, published 2025)

Biological target: recombinant human SSTR3 (Homo sapiens, UniProt P32745)
Experiment: [125I]SST14 radioligand binding competition, filtration-based
Text: This was accomplished using filtration-based assays against the radiolabeled peptide ^[125I]SST14. The reference compound used was the peptide SST28.
SiFALP was also used to cyclize octreotide in a model reaction (Scheme 6).

Chain of recombinant human SSTR3 (P32745 whole entry): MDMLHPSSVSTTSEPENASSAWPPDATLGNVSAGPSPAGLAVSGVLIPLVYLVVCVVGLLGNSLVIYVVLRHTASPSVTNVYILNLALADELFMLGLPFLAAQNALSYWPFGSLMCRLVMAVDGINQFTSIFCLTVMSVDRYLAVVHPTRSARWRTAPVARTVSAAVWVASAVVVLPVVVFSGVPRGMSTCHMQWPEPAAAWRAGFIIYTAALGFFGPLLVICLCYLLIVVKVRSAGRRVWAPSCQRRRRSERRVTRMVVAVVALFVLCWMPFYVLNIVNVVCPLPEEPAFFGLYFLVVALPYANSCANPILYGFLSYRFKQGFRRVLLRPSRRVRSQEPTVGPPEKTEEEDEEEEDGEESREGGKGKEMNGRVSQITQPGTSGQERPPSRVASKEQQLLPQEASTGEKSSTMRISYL

C[C@@H](O)[C@@H]1NC(=O)[C@H](CCCCN)NC(=O)[C@@H](Cc2c[nH]c3ccccc23)NC(=O)[C@H](Cc2ccccc2)NC(=O)[C@@H](NC(=O)[C@H](N)Cc2ccccc2)CSC2=C(SC[C@@H](C(=O)N[C@H](CO)[C@@H](C)O)NC1=O)C(=O)N(Cc1cn(Cc3ccc([Si](F)(C(C)(C)C)C(C)(C)C)cc3)nn1)C2=O [Octreo-SiFA]
IC50: 211 nM
